According to patent publication US8163724B2, “Glucocorticosteroids, processes for their preparation, pharmaceutical compositions containing them and their use in therapy” (AstraZeneca AB, priority 2007, dated 2012):

Target: T1, recombinant human GR (Homo sapiens, UniProt P04150)
T1 construct: purchased Panvera/Invitrogen P2812 (kit P2893)
T1 sequence (P04150 1-777): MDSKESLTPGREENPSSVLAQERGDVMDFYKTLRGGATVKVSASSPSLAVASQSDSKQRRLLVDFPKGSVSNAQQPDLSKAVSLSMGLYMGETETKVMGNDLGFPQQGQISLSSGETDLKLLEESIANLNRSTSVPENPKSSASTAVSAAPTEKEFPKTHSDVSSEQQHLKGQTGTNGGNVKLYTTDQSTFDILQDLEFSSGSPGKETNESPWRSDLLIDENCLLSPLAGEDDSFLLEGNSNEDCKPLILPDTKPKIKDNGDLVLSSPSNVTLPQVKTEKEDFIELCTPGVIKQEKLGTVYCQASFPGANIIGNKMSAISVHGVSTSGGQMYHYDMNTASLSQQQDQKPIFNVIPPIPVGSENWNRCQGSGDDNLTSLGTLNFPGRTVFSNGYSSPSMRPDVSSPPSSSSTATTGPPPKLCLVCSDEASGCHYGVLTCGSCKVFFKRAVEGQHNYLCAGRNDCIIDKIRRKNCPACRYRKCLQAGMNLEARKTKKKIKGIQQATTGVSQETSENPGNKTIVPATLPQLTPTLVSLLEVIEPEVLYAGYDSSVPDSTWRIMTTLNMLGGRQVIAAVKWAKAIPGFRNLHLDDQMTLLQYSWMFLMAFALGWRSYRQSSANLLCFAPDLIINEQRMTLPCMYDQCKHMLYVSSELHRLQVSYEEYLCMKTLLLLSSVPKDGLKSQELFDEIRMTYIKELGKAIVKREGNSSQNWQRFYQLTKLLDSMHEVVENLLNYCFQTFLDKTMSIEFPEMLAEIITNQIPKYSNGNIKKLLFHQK
Assay: Human Glucocorticoid Receptor (GR) Assay (fluorescence polarization, Panvera/Invitrogen kit)
Format: binding
Conditions: fluorescence polarization; GS Red tracer; 2 hours at room temperature; 100% control 10 μM Dexamethasone; read-out: Inhibition of GR binding, IC50
Method in brief: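 Fluorescence polarization competition with recombinant GR and GS Red fluorescent ligand plus stabilizing peptide and DTT in potassium phosphate/sodium molybdate/EDTA buffer with DMSO. Incubated 2 hours at room temperature in the dark; 0% control DMSO, 100% control 10 μM dexamethasone.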

Row | Compound | IC50 [nM]
1 | CCC(=O)O[C@]1(C(=O)SCC(C)=O)CC[C@H]2[C@@H]3CCC4=Cc5c(cnn5-c5ccc(F)cc5)C[C@]4(C)[C@H]3[C@@H](O)C[C@@]21C [Example 17, (1R,3aS,3bS,10aR,10bS,11S,12aS)-7-(4-Fluorophenyl)-11-hydroxy-10a,12a-dimethyl-1-{[(2-oxopropyl)thio]carbonyl}-1,2,3,3a,3b,4,5,7,10,10a,10b,11,12,12a-tetradecaphydrocyclopenta[5,6]naphtho[1,2-f]indazol-1-yl propanoate] | 4.8
2 | C[C@]12Cc3cnn(-c4ccc(F)cc4)c3C=C1CC[C@@H]1[C@@H]2[C@@H](O)C[C@@]2(C)[C@H]1CC[C@]2(OC(=O)C1CCC1)C(=O)SCC#N [Example 113, (1R,3aS,3bS,10aR,10bS,11S,12aS)-1-{[(Cyanomethyl)sulfanyl]carbonyl}-7-(4-fluorophenyl)-11-hydroxy-10a,12a-dimethyl-1,2,3,3a,3b,4,5,7,10,10a,10b,11,12,12a-tetradecahydrocyclopenta[5,6]naphtho[1,2-f]indazol-1-yl cyclobutanecarboxylate] | 11
3 | C[C@]12Cc3cnn(-c4ccc(F)cc4)c3C=C1CC[C@@H]1[C@@H]2[C@@H](O)C[C@@]2(C)[C@H]1CC[C@]2(OC(=O)C1CC1)C(=O)SCC#N [Example 35, (1R,3aS,3bS,10aR,10bS,11S,12aS)-1-{[(Cyanomethyl)thio]carbonyl}-7-(4-fluoro-Phenyl)-11-hydroxy-10a,12a-dimethyl-1,2,3,3a,3b,4,5,7,10,10a,10b,11,12,12a-tetradecahydrocyclopenta[5,6]naphtho[1,2-f]indazol-1-yl cyclopropanecarboxylate] | 5
4 | COCC(=O)O[C@]1(C(=O)SCC#N)CC[C@H]2[C@@H]3C[C@H](C)C4=Cc5c(cnn5-c5ccc(F)cc5)C[C@]4(C)[C@H]3[C@@H](O)C[C@@]21C [Example 215, (1R,3aS,3bS,5S,10aR,10bS,11S,12aS)-1-{[(Cyanomethyl)sulfanyl]carbonyl}-7-(4-fluorophenyl)-11-hydroxy-5,10a,12a-trimethyl-1,2,3,3a,3b,4,5,7,10,10a,10b,11,12,12a-tetradecahydrocyclopenta[5,6]naphtho[1,2-f]indazol-1-yl methoxyacetate] | 51
5 | CSC(=O)[C@@]1(OC(=O)[C@H]2CCCO2)CC[C@H]2[C@@H]3CCC4=Cc5c(cnn5-c5ccc(F)nc5)C[C@]4(C)[C@H]3[C@@H](O)C[C@@]21C [Example 188, (1R,3aS,3bS,10aR,10bS,11S,12aS)-7-(6-Fluoropyridin-3-yl)-11-hydroxy-10a,12a-dimethyl-1-[(methylsulfanyl)carbonyl]-1,2,3,3a,3b,4,5,7,10,10a,10b,11,12,12a-tetradecahydrocyclopenta[5,6]naphtho[1,2]-indazol-1-yl (2R)-tetrahydrofuran-2-carboxylate] | 1.2
6 | C[C@]12Cc3cnn(-c4ccc(F)cc4)c3C=C1CC[C@@H]1[C@@H]2[C@@H](O)C[C@@]2(C)[C@H]1CC[C@]2(OC(=O)c1cocn1)C(=O)SCCO [Example 44, (1R,3aS,3bS,10aR,10bS,11S,12aS)-7-(4-Fluorophenyl)-11-hydroxy-1-{[(2-hydroxy-ethyl)thio]carbonyl}-10a,12a-dimethyl-1,2,3,3a,3b,4,5,7,10,10a,10b,11,12,12a-tetradecahydrocyclopenta[5,6]naphtho[1,2-f]indazol-1-yl 1,3-oxazole-4-carboxylate] | 2.9
7 | CSCOC(=O)[C@@]1(OC(C)=O)CC[C@H]2[C@@H]3CCC4=Cc5c(cnn5-c5ccc(F)cc5)C[C@]4(C)[C@H]3[C@@H](O)C[C@@]21C [Example 119, (Methylsulfanyl)methyl(1R,3aS,3bS,10aR,10bS,11S,12aS)-1-(acetyloxy)-7-(4-fluorophenyl)-11-hydroxy-10a,12a-dimethyl-1,2,3,3a,3b,4,5,7,10,10a,10b,11,12,12a-tetradecahydrocyclopenta[5,6]naphtho[1,2-f]indazole-1-carboxylate] | 4.6
8 | COCCC(=O)O[C@]1(C(=O)SCC#N)CC[C@H]2[C@@H]3CCC4=Cc5c(cnn5-c5ccc(F)cc5)C[C@]4(C)[C@H]3[C@@H](O)C[C@@]21C [Example 62, (1R,3aS,3bS,10aR,10bS,11S,12aS)-1-{[(Cyanomethyl)thio]carbonyl}-7-(4-fluorophenyl)-11-hydroxy-10a,12a-dimethyl-1,2,3,3a,3b,4,5,7,10,10a,10b,11,12,12a-tetradecahydrocyclopenta[5,6]naphtho[1,2-f]indazol-1-yl 3-methoxypropanoate] | 2.2
9 | COCC(=O)O[C@]1(C(=O)SCF)CC[C@H]2[C@@H]3CCC4=Cc5c(cnn5-c5ccc(F)cc5)C[C@]4(C)[C@@]3(F)[C@@H](O)C[C@@]21C [Example 198, (1R,3aS,3bS,10aS,10bR,11S,12aS)-1-{[(Fluoromethyl)sulfanyl]carbonyl}-10b-fluoro-7-(4-fluorophenyl)-11-hydroxy-10a,12a-dimethyl-1,2,3,3a,3b,4,5,7,10,10a,10b,11,12,12a-tetradecahydrocyclopenta[5,6]naphtho[1,2-f]indazol-1-yl methoxyacetate] | 2.6
10 | COCC(=O)O[C@]1(C(=O)SCC#N)CC[C@H]2[C@@H]3CCC4=Cc5c(cnn5-c5ccc(F)cc5)C[C@]4(C)[C@H]3[C@@H](O)C[C@@]21C [Example 30, (1R,3aS,3bS,10aR,10bS,11S,12aS)-1-{[(Cyanomethyl)thio]carbonyl}-7-(4-fluoro-phenyl)-11-hydroxy-10a,12a-dimethyl-1,2,3,3a,3b,4,5,7,10,10a,10b,11,12,12a-tetradecahydrocyclopenta[5,6]naphtho[1,2-f]indazol-1-yl methoxyacetate] | 3.1
11 | Cc1cc(-n2ncc3c2C=C2CC[C@@H]4[C@H]([C@@H](O)C[C@@]5(C)[C@H]4CC[C@]5(OC(=O)C4CC4)C(=O)OCC#N)[C@@]2(C)C3)ccn1 [Example 142, Cyanomethyl(1R,3aS,3bS,10aR,10bS,11S,12aS)-1-[(cyclopropylcarbonyl)oxy]-11-hydroxy-10a,12a-dimethyl-7-(2-methylpyridin-4-yl)-1,2,3,3a,3b,4,5,7,10,10a,10b,11,12,12a-tetradecahydrocyclopenta[5,6]naphtho[1,2-]indazole-1-carboxylate] | 1.6
12 | CCC(=O)O[C@]1(C(=O)SCOC)CC[C@H]2[C@@H]3CCC4=Cc5c(cnn5-c5ccc(F)cc5)C[C@]4(C)[C@H]3[C@@H](O)C[C@@]21C [Example 14, (1R,3aS,3bS,10aR,10bS,11S,12aS)-7-(4-Fluorophenyl)-11-hydroxy-{[(methoxy-methyl)thio]carbonyl}-10a,12a-dimethyl-1,2,3,3a,3b,4,5,7,10,10a,10b,11,12,12a-tetradecahydrocyclopenta[5,6]naphtho[1,2-f]indazol-1-yl propanoate] | 3.6
13 | C[C@]12Cc3cnn(-c4ccc(F)nc4)c3C=C1CC[C@H]1[C@@H]3CC[C@](OC(=O)C4CC4)(C(=O)SCF)[C@@]3(C)C[C@H](O)[C@@]12F [Example 208, (1R,3aS,3bS,10aS,10bR,11S,12aS)-1-{[(Fluoromethyl)sulfanyl]carbonyl}-10b-fluoro-7-(6-fluoropyridin-3-yl)-11-hydroxy-10a,12a-dimethyl-1,2,3,3a,3b,4,5,7,10,10a,10b,11,12,12a-tetradecahydrocyclopenta[5,6]naphtho[1,2-f]indazol-1-yl cyclopropanecarboxylate] | 3.4
